Experimental data reported in publication PMC7338734 (Neuroscience Insights, 2020).

Tests used:
[1] = biological target: Acetylcholinesterase (AChE) (Electrophorus electricus, UniProt O42275); assay: Ellman's assay, purified enzyme from electric eel; format: biochemical
[2] = biological target: Butyrylcholinesterase (BuChE) (Equus caballus, UniProt P81908); assay: Ellman's assay, purified enzyme from equine serum; format: biochemical
Chain of Butyrylcholinesterase (BuChE) (P81908 whole entry): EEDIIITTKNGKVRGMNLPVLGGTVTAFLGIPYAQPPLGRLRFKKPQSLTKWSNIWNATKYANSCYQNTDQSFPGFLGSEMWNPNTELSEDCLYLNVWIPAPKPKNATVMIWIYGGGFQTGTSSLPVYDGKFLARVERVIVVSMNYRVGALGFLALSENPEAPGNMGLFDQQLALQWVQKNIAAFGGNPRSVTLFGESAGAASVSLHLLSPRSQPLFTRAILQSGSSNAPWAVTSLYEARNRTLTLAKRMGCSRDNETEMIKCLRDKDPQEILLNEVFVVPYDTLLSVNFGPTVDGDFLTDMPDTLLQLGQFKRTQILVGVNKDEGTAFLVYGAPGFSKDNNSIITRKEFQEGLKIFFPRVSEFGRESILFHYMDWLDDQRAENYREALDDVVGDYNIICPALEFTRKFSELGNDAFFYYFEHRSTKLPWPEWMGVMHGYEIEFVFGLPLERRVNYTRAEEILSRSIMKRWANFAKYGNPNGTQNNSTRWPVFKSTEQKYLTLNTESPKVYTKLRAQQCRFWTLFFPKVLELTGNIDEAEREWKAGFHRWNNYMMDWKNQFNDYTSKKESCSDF

Chain of Acetylcholinesterase (AChE) (O42275 24-633): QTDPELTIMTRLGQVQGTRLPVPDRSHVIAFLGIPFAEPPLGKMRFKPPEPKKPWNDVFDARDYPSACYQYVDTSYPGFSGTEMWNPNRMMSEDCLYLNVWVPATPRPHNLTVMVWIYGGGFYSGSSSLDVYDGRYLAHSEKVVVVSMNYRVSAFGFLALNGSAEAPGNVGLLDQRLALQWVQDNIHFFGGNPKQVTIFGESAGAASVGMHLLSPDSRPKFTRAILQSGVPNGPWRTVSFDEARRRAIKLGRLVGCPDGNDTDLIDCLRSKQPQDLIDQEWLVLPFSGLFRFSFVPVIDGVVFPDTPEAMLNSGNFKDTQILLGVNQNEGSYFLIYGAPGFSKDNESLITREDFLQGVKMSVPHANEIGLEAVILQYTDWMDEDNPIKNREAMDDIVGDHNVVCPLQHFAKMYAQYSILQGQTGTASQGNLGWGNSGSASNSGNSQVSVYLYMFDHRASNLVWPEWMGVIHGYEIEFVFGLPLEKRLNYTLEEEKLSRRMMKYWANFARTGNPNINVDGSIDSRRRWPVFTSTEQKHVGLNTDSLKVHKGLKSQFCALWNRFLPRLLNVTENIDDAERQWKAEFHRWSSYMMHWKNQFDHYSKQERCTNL

SMILES: COc1cc2ccc(=O)oc2cc1O [scopoletin, 6-methoxy-7-hydroxycoumarin]
- IC50 [1]: 5.34 µM
- IC50 [2]: 9.11 µM
